Assay results: patent US8148373B2, “Compounds” (AstraZeneca AB, priority 2008, dated 2012)

Key:
[1] = target: T1, Adrenergic β2 (H292 cells) (Homo sapiens, UniProt P07550); experiment: Adrenergic β2 Mediated cAMP Production, single concentration 1 μM; assay type: cell-based; settings: percentage of the maximum response generated by 1E-07M formoterol; for activation at 1 µM: NCI-H292, 1 μM compound, read-out: β2 (% effect at 1 μM)
T1 construct: endogenous in cells; host or cells: H292 cells
Outline: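 H292 cells were plated overnight, pre-treated with 300 μM rolipram for 10 min, then exposed to compound at 1 μM final (1% DMSO) for 60 min at room temperature. cAMP in the lysates was measured by AlphaScreen against a standard curve and expressed as % of the maximal response to 1E-07M formoterol.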

[2] = target: T2, human muscarinic acetylcholine M3 receptor (M3-ACh) (Homo sapiens, UniProt P20309); experiment: Muscarinic 3 Receptor Binding Assay, % inhibition specific binding at 1 μM; settings: 1 μM compound, % inhibition specific [3H]-NMS binding
T2 construct: expressed in transfected cells; host or cells: CHO-K1 (Chinese Hamster Ovary) cell membranes
T2 sequence (P20309 whole entry): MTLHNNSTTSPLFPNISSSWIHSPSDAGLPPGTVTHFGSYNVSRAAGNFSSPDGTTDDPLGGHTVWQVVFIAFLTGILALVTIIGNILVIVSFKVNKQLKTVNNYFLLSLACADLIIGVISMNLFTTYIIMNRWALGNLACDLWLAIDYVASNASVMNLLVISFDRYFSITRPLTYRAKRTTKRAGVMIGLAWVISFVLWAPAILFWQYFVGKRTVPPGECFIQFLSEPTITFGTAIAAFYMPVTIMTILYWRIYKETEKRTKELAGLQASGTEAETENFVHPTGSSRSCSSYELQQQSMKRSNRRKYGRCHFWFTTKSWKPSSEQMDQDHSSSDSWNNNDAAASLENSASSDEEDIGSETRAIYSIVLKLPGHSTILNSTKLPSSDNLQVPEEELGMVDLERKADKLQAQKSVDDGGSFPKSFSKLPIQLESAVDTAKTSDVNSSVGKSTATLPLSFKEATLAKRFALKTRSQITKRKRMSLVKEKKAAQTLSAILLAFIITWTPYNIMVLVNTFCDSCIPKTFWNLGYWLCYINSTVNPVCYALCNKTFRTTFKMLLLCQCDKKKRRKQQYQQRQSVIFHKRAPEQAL
Outline: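 Competition binding of 0.1 nM [3H]NMS to membranes from CHO-K1 cells expressing human M3, SPA format, with compound at 1 μM in 20 mM HEPES pH 7.4, 5 mM MgCl2, 1% DMSO. Incubated 16 h at room temperature; non-specific binding defined by 1 μM atropine; value is % inhibition of specific binding.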

T1 sequence (P07550 whole entry): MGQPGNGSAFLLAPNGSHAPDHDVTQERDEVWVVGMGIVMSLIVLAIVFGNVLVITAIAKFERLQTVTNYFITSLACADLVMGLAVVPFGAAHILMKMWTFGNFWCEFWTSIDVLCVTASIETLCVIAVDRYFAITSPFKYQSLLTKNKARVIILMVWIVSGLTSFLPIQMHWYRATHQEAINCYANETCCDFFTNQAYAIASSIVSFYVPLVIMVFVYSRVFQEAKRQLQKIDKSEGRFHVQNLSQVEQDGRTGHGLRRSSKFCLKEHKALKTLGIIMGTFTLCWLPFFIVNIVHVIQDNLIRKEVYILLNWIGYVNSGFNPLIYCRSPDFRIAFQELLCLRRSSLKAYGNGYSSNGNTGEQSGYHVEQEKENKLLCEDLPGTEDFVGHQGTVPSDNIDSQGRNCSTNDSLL

SMILES	activation at 1 µM [1] [%]	inhibition at 1 µM [2] [%]	β2 (% effect at 1 μM) ([1]; 1 μM compound) [%]	M3 (% inhibition at 1 μM) ([2]; 1 µM) [%]
Cc1cc(C(=O)N2CCOC3(CCN(Cc4cc(F)cc(CCNC[C@H](O)c5ccc(O)c6[nH]c(=O)sc56)c4)CC3)C2)c(C)s1 [Example 150, (R)-7-(2-(3-((4-(2,5-dimethylthiophene-3-carbonyl)-1-oxa-4,9-diazaspiro[5.5]undecan-9-yl)methyl)-5-fluorophenethylamino)-1-hydroxyethyl)-4-hydroxybenzo[d]thiazol-2(3H)-one]	100	91	–	–
Cc1nonc1CC(=O)N1CCOC2(CCN(Cc3cc(F)cc(CCNC[C@H](O)c4ccc(O)c5[nH]c(=O)sc45)c3)CC2)C1 [Example 163, (R)-7-(2-(3-fluoro-5-((4-(2-(4-methyl-1,2,5-oxadiazol-3-yl)acetyl)-1-oxa-4,9-diazaspiro[5.5]undecan-9-yl)methyl)phenethylamino)-1-hydroxyethyl)-4-hydroxybenzo[d]thiazol-2(3H)-one]	95	25	–	–
O=C(CCc1c[nH]c2ccccc12)N1CCOC2(CCN(Cc3cc(F)cc(CCNC[C@H](O)c4ccc(O)c5[nH]c(=O)sc45)c3)CC2)C1 [Example 128, (R)-7-(2-(3-((4-(3-(1H-indol-3-yl)propanoyl)-1-oxa-4,9-diazaspiro[5.5]undecan-9-yl)methyl)-5-fluorophenethylamino)-1-hydroxyethyl)-4-hydroxybenzo[d]thiazol-2(3H)-one]	112	14	–	–
O=C(c1ccc2[nH]ccc2c1)N1CCOC2(CCN(Cc3cc(F)cc(CCNC[C@H](O)c4ccc(O)c5[nH]c(=O)sc45)c3)CC2)C1 [Example 138, (R)-7-(2-(3-((4-(1H-indole-5-carbonyl)-1-oxa-4,9-diazaspiro[5.5]undecan-9-yl)methyl)-5-fluorophenethylamino)-1-hydroxyethyl)-4-hydroxybenzo[d]thiazol-2(3H)-one]	92	27	–	–
Cn1c(C(=O)N2CCOC3(CCN(Cc4cc(F)cc(CCNC[C@H](O)c5ccc(O)c6[nH]c(=O)sc56)c4)CC3)C2)cc2ccccc21 [Example 139, (R)-7-(2-(3-fluoro-5-((4-(1-methyl-1H-indole-2-carbonyl)-1-oxa-4,9-diazaspiro[5.5]undecan-9-yl)methyl)phenethylamino)-1-hydroxyethyl)-4-hydroxybenzo[d]thiazol-2(3H)-one]	101	34	–	–
CC(C)(C(=O)N1CCOC2(CCN(CCCCCCCCCNC[C@H](O)c3ccc(O)c4[nH]c(=O)sc34)CC2)C1)c1ccccc1 [Example 189, (R)-4-hydroxy-7-(1-hydroxy-2-(9-(4-(2-methyl-2-phenylpropanoyl)-1-oxa-4,9-diazaspiro[5.5]undecan-9-yl)nonylamino)ethyl)benzo[d]thiazol-2(3H)-one]	93	96	–	–
Cc1cc(C(=O)N2CCOC3(CCN(CCCCCCCCCNC[C@H](O)c4ccc(O)c5[nH]c(=O)sc45)CC3)C2)oc1C [Example 195, (R)-7-(2-(9-(4-(4,5-dimethylfuran-2-carbonyl)-1-oxa-4,9-diazaspiro[5.5]undecan-9-yl)nonylamino)-1-hydroxyethyl)-4-hydroxybenzo[d]thiazol-2(3H)-one]	86	88	–	–
Cc1cccc(C(=O)N2CCOC3(CCN(CCOc4ccc(CNC[C@H](O)c5ccc(O)c6[nH]c(=O)sc56)cc4)CC3)C2)n1 [Example 237, (R)-4-hydroxy-7-(1-hydroxy-2-(4-(2-(4-(6-methylpicolinoyl)-1-oxa-4,9-diazaspiro[5.5]undecan-9-yl)ethoxy)benzylamino)ethyl) benzo[d]thiazol-2(3H)-one]	62	46	–	–
O=C(N1CCOC2(CCN(Cc3cc(F)cc(CCNC[C@H](O)c4ccc(O)c5[nH]c(=O)sc45)c3)CC2)C1)C1(c2ccccc2)CCCC1 [Example 129, (R)-7-(2-(3-fluoro-5-((4-(1-phenylcyclopentanecarbonyl)-1-oxa-4,9-diazaspiro[5.5]undecan-9-yl)methyl)phenethylamino)-1-hydroxyethyl)-4-hydroxybenzo[d]thiazol-2(3H)-one]	90	20	–	–
O=C(CCc1nc2ccccc2[nH]1)N1CCOC2(CCN(Cc3cc(F)cc(CCNC[C@H](O)c4ccc(O)c5[nH]c(=O)sc45)c3)CC2)C1 [Example 116, (R)-7-(2-(3-((4-(3-(1H-benzo[d]imidazol-2-yl)propanoyl)-1-oxa-4,9-diazaspiro[5.5]undecan-9-yl)methyl)-5-fluorophenethylamino)-1-hydroxyethyl)-4-hydroxybenzo[d]thiazol-2(3H)-one]	111	3	–	–
O=C(c1ccc2occc2c1)N1CCOC2(CCN(CCOc3ccc(CNC[C@H](O)c4ccc(O)c5[nH]c(=O)sc45)cc3)CC2)C1 [Example 250, (R)-7-(2-(4-(2-(4-(benzofuran-5-carbonyl)-1-oxa-4,9-diazaspiro[5.5]undecan-9-yl)ethoxy)benzylamino)-1-hydroxyethyl)-4-hydroxybenzo[d]thiazol-2(3H)-one]	77	91	–	–
O=C(c1cccc2[nH]ccc12)N1CCOC2(CCN(Cc3cc(F)cc(CCNC[C@H](O)c4ccc(O)c5[nH]c(=O)sc45)c3)CC2)C1 [Example 165, (R)-7-(2-(3-((4-(1H-indole-4-carbonyl)-1-oxa-4,9-diazaspiro[5.5]undecan-9-yl)methyl)-5-fluorophenethylamino)-1-hydroxyethyl)-4-hydroxybenzo[d]thiazol-2(3H)-one]	89	11	–	–
Cc1nc2cc(C(=O)N3CCOC4(CCN(CCCCCCCCCNC[C@H](O)c5ccc(O)c6[nH]c(=O)sc56)CC4)C3)ccc2s1 [Example 215, (R)-4-hydroxy-7-(1-hydroxy-2-(9-(4-(2-methylbenzo[d]thiazole-5-carbonyl)-1-oxa-4,9-diazaspiro[5.5]undecan-9-yl)nonylamino)ethyl)benzo[d]thiazol-2(3H)-one]	89	94	–	–
O=C(c1csc(C2CCC2)n1)N1CCOC2(CCN(CCOc3ccc(CNC[C@H](O)c4ccc(O)c5[nH]c(=O)sc45)cc3)CC2)C1 [Example 261, (R)-7-(2-(4-(2-(4-(2-cyclobutylthiazole-4-carbonyl)-1-oxa-4,9-diazaspiro[5.5]undecan-9-yl)ethoxy)benzylamino)-1-hydroxyethyl)-4-hydroxy-benzo[d]thiazol-2(3H)-one]	70	90	–	–
CC(C)c1cc(C(=O)N2CCOC3(CCN(Cc4cc(F)cc(CCNC[C@H](O)c5ccc(O)c6[nH]c(=O)sc56)c4)CC3)C2)no1 [Example 179, (R)-7-(2-(3-fluoro-5-((4-(5-isopropylisoxazole-3-carbonyl)-1-oxa-4,9-diazaspiro[5.5]undecan-9-yl)methyl)phenethylamino)-1-hydroxyethyl)-4-hydroxybenzo[d]thiazol-2(3H)-one]	95	66	–	–
O=C(Cc1cccs1)N1CCOC2(CCN(CCCCCCCCCNC[C@H](O)c3ccc(O)c4[nH]c(=O)sc34)CC2)C1 [Example 185, (R)-4-hydroxy-7-(1-hydroxy-2-(9-(4-(2-(thiophen-2-yl)acetyl)-1-oxa-4,9-diazaspiro[5.5]undecan-9-yl)nonylamino)ethyl)benzo[d]thiazol-2(3H)-one]	81	95	–	–
Cc1ccoc1C(=O)N1CCOC2(CCN(CCCCCCCCCNC[C@H](O)c3ccc(O)c4[nH]c(=O)sc34)CC2)C1 [Example 193, (R)-4-hydroxy-7-(1-hydroxy-2-(9-(4-(3-methylfuran-2-carbonyl)-1-oxa-4,9-diazaspiro[5.5]undecan-9-yl)nonylamino)ethyl)benzo[d]thiazol-2(3H)-one]	91	99	–	–
Cc1nn(-c2ccccc2)nc1C(=O)N1CCOC2(CCN(Cc3cc(F)cc(CCNC[C@H](O)c4ccc(O)c5[nH]c(=O)sc45)c3)CC2)C1 [Example 170, (R)-7-(2-(3-fluoro-5-((4-(5-methyl-2-phenyl-2H-1,2,3-triazole-4-carbonyl)-1-oxa-4,9-diazaspiro[5.5]undecan-9-yl)methyl)phenethylamino)-1-hydroxyethyl)-4-hydroxybenzo[d]thiazol-2(3H)-one]	102	42	–	–
O=C(c1ccc(-c2ccccc2)cc1)N1CCOC2(CCN(Cc3cc(F)cc(CCNC[C@H](O)c4ccc(O)c5[nH]c(=O)sc45)c3)CC2)C1 [Example 169, (R)-7-(2-(3-((4-(biphenylcarbonyl)-1-oxa-4,9-diazaspiro[5.5]undecan-9-yl)methyl)-5-fluorophenethylamino)-1-hydroxyethyl)-4-hydroxybenzo[d]thiazol-2(3H)-one]	–	–	92	−2
Cc1occc1C(=O)N1CCOC2(CCN(CCOc3ccc(CNC[C@H](O)c4ccc(O)c5[nH]c(=O)sc45)cc3)CC2)C1 [Example 238, (R)-4-hydroxy-7-(1-hydroxy-2-(4-(2-(4-(2-methylfuran-3-carbonyl)-1-oxa-4,9-diazaspiro[5.5]undecan-9-yl)ethoxy)benzylamino)ethyl) benzo[d]thiazol-2(3H)-one]	73	57	–	–
